# Publication PMC9529664 (Current Research in Food Science, 2022)
# Residues, ends and D or L forms follow the SMILES beside them.
# Molecular target: DPP-IV enzyme (Homo sapiens, UniProt P27487)
# Test: biochemical
# DPP-IV enzyme, sequence (P27487 whole entry, species assumed): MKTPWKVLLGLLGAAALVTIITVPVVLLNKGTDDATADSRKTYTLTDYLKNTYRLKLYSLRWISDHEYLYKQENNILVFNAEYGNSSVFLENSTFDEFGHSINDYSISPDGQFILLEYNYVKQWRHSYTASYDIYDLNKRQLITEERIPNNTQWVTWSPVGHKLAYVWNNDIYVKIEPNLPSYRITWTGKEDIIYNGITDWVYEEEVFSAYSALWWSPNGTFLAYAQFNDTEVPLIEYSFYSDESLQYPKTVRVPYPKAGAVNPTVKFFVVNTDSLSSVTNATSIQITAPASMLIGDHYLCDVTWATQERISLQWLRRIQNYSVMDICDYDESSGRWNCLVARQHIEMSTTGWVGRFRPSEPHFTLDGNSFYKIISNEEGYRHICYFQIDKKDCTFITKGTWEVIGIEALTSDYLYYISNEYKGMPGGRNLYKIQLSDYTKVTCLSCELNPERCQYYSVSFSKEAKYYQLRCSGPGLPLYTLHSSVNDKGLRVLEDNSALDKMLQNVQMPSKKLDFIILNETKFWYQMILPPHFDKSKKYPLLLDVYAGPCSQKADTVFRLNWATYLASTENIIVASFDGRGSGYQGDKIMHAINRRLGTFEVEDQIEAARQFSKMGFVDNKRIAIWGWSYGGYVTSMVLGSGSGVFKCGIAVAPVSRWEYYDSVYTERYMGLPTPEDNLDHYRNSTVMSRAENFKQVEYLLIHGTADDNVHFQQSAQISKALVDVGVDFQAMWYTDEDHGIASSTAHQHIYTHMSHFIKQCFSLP
row,SMILES,IC50 [mM]
1,C[C@@H](O)[C@H](NC(=O)[C@H](CC(N)=O)NC(=O)CNC(=O)[C@H](Cc1ccccc1)NC(=O)[C@@H]1CCCN1)C(=O)N[C@@H](Cc1c[nH]cn1)C(=O)N[C@@H](CC(N)=O)C(=O)N[C@@H](CC(N)=O)C(=O)N[C@@H](Cc1ccccc1)C(=O)N[C@@H](CCCCN)C(=O)O [D1] (H-PFGNTHNNFK-OH),8.51
2,CC[C@H](C)[C@H](N)C(=O)N1CCC[C@H]1C(=O)N[C@@H](Cc1c[nH]cn1)C(=O)N[C@@H](CCC(=O)O)C(=O)N[C@@H](CO)C(=O)N[C@H](C(=O)N[C@@H](CC(=O)O)C(=O)N[C@H](C(=O)N[C@H](C(=O)N[C@@H](CCCCN)C(=O)O)[C@@H](C)CC)C(C)C)C(C)C [D22] (H-IPHESVDVIK-OH),2.69
3,CSCC[C@H](NC(=O)[C@H](Cc1c[nH]cn1)NC(=O)[C@H](CC(N)=O)NC(=O)[C@H](CC(N)=O)NC(=O)[C@H](Cc1c[nH]cn1)NC(=O)[C@H](CCCCN)NC(=O)[C@H](CO)NC(=O)[C@H](CC(C)C)NC(=O)[C@H](CC(=O)O)NC(=O)[C@@H]1CCCN1)C(=O)O [D35] (H-PDLSKHNNHM-OH),3.88
4,CC(C)[C@H](NC(=O)[C@H](C)NC(=O)[C@H](CCC(=O)O)NC(=O)[C@H](C)NC(=O)[C@@H]1CCCN1C(=O)[C@@H](N)CCC(=O)O)C(=O)NCC(=O)N[C@@H](CC(=O)O)C(=O)N[C@@H](Cc1c[nH]c2ccccc12)C(=O)N[C@@H](CCCNC(=N)N)C(=O)O [D37] (H-EPAEAVGDWR-OH),0.1
